{"source": "patent US20230263742A1", "about": "“A LIPID” (Stemirna Therapeutics Co., Ltd., priority 2021, published 2023)"}
{"tested_on": "Balb/C mice", "assay": "Luc expression in injection site and liver site after intramuscular administration (Example 5)", "format": "in vivo", "conditions": "5 μg Luc mRNA-LNP (DSPC) intramuscularly, Balb/C mice n=3, 6 h", "method": "Further bioluminescence studies were performed to investigate the delivery efficiency of nanoparticle compositions including various lipid compounds according to the present invention. The formulations containing reference cationic lipid M62, M63, M118, and M119 (corresponding to Compound 62, 63, 118, and 119 in PCT/US2018/022717 (WO2018/170306), respectively) were evaluated for comparison. Nanoparticle compositions including DSPC as an optimized phospholipid, cholesterol as a structural lipid, PEG-DMG as a PEG lipid, an RNA, and a compound above mentioned were prepared according to or via methods similar to those described in Examples 1 and 2. The ratios of the lipids were 50:10:38.5:1.5 mol % for the lipid of the present invention: DSPC: cholesterol: PEG-DMG. 5 μg of LNP solution containing luciferase mRNA was administered intramuscularly to Balb/C mice (n=3). 6 hours after administration, mice were injected intraperitoneally with 0.15 mg/kg of D-luciferin substrate. Within 15 minutes after the injection of the substrate, the fluorescence signal intensity in injection site and liver site were tested under a small animal in vivo imaging instrument. Tables 3-4 summarize the fluorescence signal intensity of the nanoparticle compositions including present invention lipids and the reference compounds in injection site and liver site."}
{"compound": "CCCCCCCCCOC(=O)CCCCCCCN(CCO)CCCCCCCC(=O)OCc1ccc(CCCCCC)c(CCCCCC)c1", "note": "[SW-II-115]", "Luc expression in injection site, I.M. injection site, 6 h (ratio relative to SW-II-134-3 set as 1)": 1.046}
{"compound": "CCCCCCCCC(CCCCCCCC)OC(=O)CCCCCCCN(CCO)CCCCCCCC(=O)OCc1cccc(CCCCCC)c1", "note": "[SW-II-122]", "Luc expression in injection site, I.M. injection site, 6 h (ratio relative to SW-II-134-3 set as 1)": 1.321}
{"compound": "CCCCCCCCC(CCCCCCCC)OC(=O)CCCCCCCN(CCO)CCCCCCC(=O)OCc1ccc(CCCCCC)cc1", "note": "[SW-II-127]", "Luc expression in injection site, I.M. injection site, 6 h (ratio relative to SW-II-134-3 set as 1)": 1.743}
{"compound": "CCCCCCCCCOC(=O)CCCCCCCN(CCO)CCCCCCCC(=O)OCCc1ccc(CCCCCC)c(CCCCCC)c1", "note": "[SW-II-134-1]", "Luc expression in injection site, I.M. injection site, 6 h (ratio relative to SW-II-134-3 set as 1)": 1.899}
{"compound": "CCCCCCCCCOC(=O)CCCCCCCN(CCO)CCCCCCCC(=O)OCCc1ccc(CCCCCCCC)c(CCCCCCCC)c1", "note": "[SW-II-134-2]", "Luc expression in injection site, I.M. injection site, 6 h (ratio relative to SW-II-134-3 set as 1)": 1.734}
{"compound": "CCCCCCCCCOC(=O)CCCCCCCN(CCO)CCCCCCCC(=O)OCCc1ccc(CCCC)c(CCCC)c1", "note": "[SW-II-134-3]", "Luc expression in injection site, I.M. injection site, 6 h (ratio relative to SW-II-134-3 set as 1)": 1.000}
{"compound": "CCCCCCCCCOC(=O)CCCCCCCN(CCO)CCCCCCCC(=O)OCCCc1ccc(CCCCC)c(CCCCC)c1", "note": "[SW-II-135-1]", "Luc expression in injection site, I.M. injection site, 6 h (ratio relative to SW-II-134-3 set as 1)": 1.771}
{"compound": "CCCCCCCCCOC(=O)CCCCCCCN(CCO)CCCCCCCC(=O)OCCCc1ccc(CCCCCCC)c(CCCCCCC)c1", "note": "[SW-II-135-2]", "Luc expression in injection site, I.M. injection site, 6 h (ratio relative to SW-II-134-3 set as 1)": 1.028}
{"compound": "CCCCCCCCCOC(=O)CCCCCCCN(CCO)CCCCCCCC(=O)OCCCCc1ccc(CCCCCC)c(CCCCCC)c1", "note": "[SW-II-136-2]", "Luc expression in injection site, I.M. injection site, 6 h (ratio relative to SW-II-134-3 set as 1)": 1.110, "Luc expression in liver site, Liver site upon I.M., 6 h (ratio relative to SW-II-137-1 set as 1)": 1.131}
{"compound": "CCCCCCCCC(CCCCCCCC)OC(=O)CCCCCCCN(CCO)CCCCCCCC(=O)OCCCc1ccc(CCCC)cc1", "note": "[SW-II-137-1]", "Luc expression in liver site, Liver site upon I.M., 6 h (ratio relative to SW-II-137-1 set as 1)": 1.000}
{"compound": "CCCCCCCCC(CCCCCCCC)OC(=O)CCCCCCCN(CCO)CCCCCCCC(=O)OCCCc1ccc(CCCCC)cc1", "note": "[SW-II-137-2]", "Luc expression in liver site, Liver site upon I.M., 6 h (ratio relative to SW-II-137-1 set as 1)": 1.206}
{"compound": "CCCCCCCCC(CCCCCCCC)OC(=O)CCCCCCCN(CCO)CCCCCCCC(=O)OCCCc1ccc(CCCCCC)cc1", "note": "[SW-II-137-3]", "Luc expression in injection site, I.M. injection site, 6 h (ratio relative to SW-II-134-3 set as 1)": 1.358, "Luc expression in liver site, Liver site upon I.M., 6 h (ratio relative to SW-II-137-1 set as 1)": 1.981}
{"compound": "CCCCCCCCC(CCCCCCCC)OC(=O)CCCCCCCN(CCO)CCCCCCCC(=O)OCCCCc1ccc(CCCC)cc1", "note": "[SW-II-138-1]", "Luc expression in injection site, I.M. injection site, 6 h (ratio relative to SW-II-134-3 set as 1)": 1.972, "Luc expression in liver site, Liver site upon I.M., 6 h (ratio relative to SW-II-137-1 set as 1)": 1.430}
{"compound": "CCCCCCCCC(CCCCCCCC)OC(=O)CCCCCCCN(CCO)CCCCCCCC(=O)OCCCCc1ccc(CCCCC)cc1", "note": "[SW-II-138-2]", "Luc expression in injection site, I.M. injection site, 6 h (ratio relative to SW-II-134-3 set as 1)": 2.826, "Luc expression in liver site, Liver site upon I.M., 6 h (ratio relative to SW-II-137-1 set as 1)": 3.318}
{"compound": "CCCCCCCCC(CCCCCCCC)OC(=O)CCCCCCCN(CCO)CCCCCCCC(=O)OCCCCc1ccc(CCCCCC)cc1", "note": "[SW-II-138-3]", "Luc expression in injection site, I.M. injection site, 6 h (ratio relative to SW-II-134-3 set as 1)": 1.294, "Luc expression in liver site, Liver site upon I.M., 6 h (ratio relative to SW-II-137-1 set as 1)": 2.850}
{"compound": "CCCCCCCCC(CCCCCCCC)OC(=O)CCCCCCCN(CCO)CCCCCCCC(=O)OCCc1cccc(CCCCCC)c1", "note": "[SW-II-139-1]", "Luc expression in injection site, I.M. injection site, 6 h (ratio relative to SW-II-134-3 set as 1)": 1.807, "Luc expression in liver site, Liver site upon I.M., 6 h (ratio relative to SW-II-137-1 set as 1)": 2.355}
{"compound": "CCCCCCCCC(CCCCCCCC)OC(=O)CCCCCCCN(CCO)CCCCCCCC(=O)OCCc1cccc(CCCC)c1", "note": "[SW-II-139-2]", "Luc expression in injection site, I.M. injection site, 6 h (ratio relative to SW-II-134-3 set as 1)": 1.440, "Luc expression in liver site, Liver site upon I.M., 6 h (ratio relative to SW-II-137-1 set as 1)": 1.355}
{"compound": "CCCCCCCCC(CCCCCCCC)OC(=O)CCCCCCCN(CCO)CCCCCCCC(=O)OCCc1ccccc1CCCCCC", "note": "[SW-II-140-1]", "Luc expression in injection site, I.M. injection site, 6 h (ratio relative to SW-II-134-3 set as 1)": 2.450, "Luc expression in liver site, Liver site upon I.M., 6 h (ratio relative to SW-II-137-1 set as 1)": 3.224}
{"compound": "CCCCCCCCC(CCCCCCCC)OC(=O)CCCCCCCN(CCO)CCCCCCCC(=O)OCCc1ccccc1CCCC", "note": "[SW-II-140-2]", "Luc expression in injection site, I.M. injection site, 6 h (ratio relative to SW-II-134-3 set as 1)": 2.257, "Luc expression in liver site, Liver site upon I.M., 6 h (ratio relative to SW-II-137-1 set as 1)": 6.991}
